Five compounds from ChEMBL document CHEMBL5154710, “Discovery of small molecules interacting at lactate dehydrogenases tetrameric interface using a biophysical screening cascade” (Eur J Med Chem, 2022) can be followed below.

One may read the Kd as a measure of binding affinity in units of concentration. In general, ΔTm refers to the shift of the melting midpoint relative to a reference. As a reminder, the IC50 is the concentration that gives 50% inhibition.

Assay [1] in a line: Stabilization of Red-dye-NHS fluorescent-labeled human LDH-Htr expressed in Escherichia coli assessed as dissociation constant by MST assay.
Assay [2] can be described thus: Destabilization of Red-dye-NHS fluorescent-labeled human LDH-5 expressed in Escherichia coli assessed as dissociation constant by MST assay.
Assay [3] can be described thus: Destabilization of Red-dye-NHS fluorescent-labeled human LDH-1 expressed in Escherichia coli assessed as dissociation constant by MST assay.
The species named for assay [4] is Homo sapiens. Description: Stabilization of human LDH-Htr expressed in Escherichia coli assessed as change in melting temperature at 1 mM heated for 3 mins by NanoDSF assay.
The species entered for assay [5] is Homo sapiens. The experiment in a line: Destabilization of human LDH-5 expressed in Escherichia coli assessed as change in melting temperature at 1 mM heated for 3 mins by NanoDSF assay. A general note: Differential scanning fluorimetry follows unfolding on heating by fluorescence.
The species entered for assay [6] is Homo sapiens. Description: Destabilization of human LDH-1expressed in Escherichia coli assessed as change in melting temperature at 1 mM heated for 3 mins by NanoDSF assay.
The species entered for assay [7] is Homo sapiens. The experiment in a line: Displacement of macro-cycle 7 from human LDH-Htr expressed in Escherichia coli assessed as decay in saturation transfer at 100 uM by saturation transfer difference-1H NMR analysis.
Assay [8] in a line: Inhibition of LDH-5 (unknown origin) assessed as denaturation of LDH-5 using NADH and pyruvate as substrate by spectrophotometric analysis. The arrangement: species or system Homo sapiens.

`Nc1nc2ccccc2n1Cc1ccc(F)cc1`: the equilibrium dissociation constant (Kd) was determined as 183 µM in assay [1], 324 µM in assay [2] and 48 µM in assay [3]. For the same compound, the ΔTm in assay [4] was 0.8 °C; in assay [5], -2.6 °C; in assay [6], 0.4 °C.

Regarding `CNCCCC12CCC(c3ccccc31)c1ccccc12`, the ΔTm in assay [4] is 4.6 °C; in assay [5], -2.7 °C; in assay [6], -1.4 °C.

Consider `O=C(O)c1cc(-c2ccc(F)cc2F)ccc1O` [DIFLUNISAL], for which the Kd in assay [1] worked out at 1000 µM; in assay [2], 343 µM; in assay [3], 116 µM. In addition, the values for the ΔTm in assay [4], in assay [5] and in assay [6] were 3.1 °C, -2.1 °C and 0.1 °C, respectively.

For `O=C(O)c1ccccc1Nc1cccc(C(F)(F)F)c1` [FLUFENAMIC ACID], the Kd in assay [1] worked out at 900 µM; in assay [3], 1700 µM. Besides, the ΔTm in assay [4] is 1.9 °C; in assay [5] it was -1.7 °C; in assay [6] it was 0.4 °C.

With `Cc1ccc(/C(=C\CN2CCCC2)c2ccccn2)cc1` [TRIPROLIDINE], in assay [7], the Activity was determined as 40%. Moreover, the IC50 in assay [8] came out at 7600 µM.
